From patent US20250332300A1 (priority 2024, published 2025)
Like-named read-outs stand apart in the source and are kept apart here. Starred links: 1 amine or outer side, 2 acyl side, 3 side chain; linkers in the order of their positions; H or OH if unused. Positions of bridges follow the written chain, without caps; N, C: chain ends. Non-standard residues stand in square brackets, D forms with d. Residues, ends and D or L forms follow the SMILES beside them. Groups on a side chain read outwards from the residue. *: point of attachment. DOTA = O=C(O)CN1CCN(CC(=O)O)CCN(CC(=O)*)CCN(CC(=O)O)CC1; Trp(5-OH) = N[C@@H](Cc1c[nH]c2ccc(O)cc12)C(=O)O; Piperazinyl(4-CH2COOH) = O=C(O)CN1CCN(*)CC1; NMePhe(4-F) = CN[C@@H](Cc1ccc(F)cc1)C(=O)O; Lys(N3) = [N-]=[N+]=NCCCC[C@H](N)C(=O)O; NMehPhe = CN[C@@H](CCc1ccccc1)C(=O)O; Adipoyl = O=C(CCCCC(=O)[*:2])[*:1]; Aad = N[C@@H](CCCC(=O)O)C(=O)O; Gly(cPr) = N[C@H](C(=O)O)C1CC1; NMeK = CN[C@@H](CCCCN)C(=O)O; NMeDap = CN[C@@H](CN)C(=O)O; CO = O=C([*:1])[*:2]

Legend:
Type in all cases: binding
[1] = target: T1, human HER2 (23-652) (Homo sapiens, UniProt P04626); assay: TR-FRET competition assay for peptide potency, human HER2; set-up: towards human HER2 (23-652) and mouse HER2 (23-653); made in house; host or cells: mammalian cells
[2] = target: T2, mouse HER2 (23-653) (Mus musculus, UniProt P70424); assay: Surface plasmon resonance (SPR) for assessment of peptide affinity, mouse HER2; set-up: mouse HER2 (23-653) using a Cy5 labeled peptide as a probe; made in house; conditions: SPR, mouse HER2 extracellular domain, 25° C., 1:1 binding model; read-out: moHER2-SPR-ONC KD
From the text: Each protein was immobilized either onto a SA sensorchip (Cytiva, BR-1005-31) or CM5 sensorchip (Cytiva, BR-1005-30) to a density of 800-2000 RU.

[3] = target: T1, human HER2 (23-652); assay: Surface plasmon resonance (SPR) for assessment of peptide affinity, human HER2; set-up: towards human HER2 (23-652) and mouse HER2 (23-653); made in house; conditions: SPR, human HER2 extracellular domain, 25° C., 1:1 binding model; read-out: huHER2-SPR-ONC KD
Procedure, shortened: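 Binding kinetics fitted from sensorgrams with 280 s peptide association then 3000 s dissociation (30 uL/min), using HER2 (23-652) either directly immobilized (SA/CM5) or anti-Fc-captured; 3 M magnesium chloride used for regeneration.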

[4] = target: T2, mouse HER2 (23-653); assay: TR-FRET competition assay for peptide potency, mouse HER2; set-up: mouse HER2 (23-653) using a Cy5 labeled peptide as a probe; made in house; host or cells: mammalian cells
[5] = TR-FRET competition with Cy5 labeled peptide probe, 0.1 nM mouse HER2, 24 h incubation, read-out: moHER2 TR-FRET IC50
[6] = value in parentheses (**): recalculated after further repetition, read-out: moHER2 TR-FRET IC50, recalculated value achieved after further repetition
[7] = TR-FRET competition with Cy5 labeled peptide probe, 0.1 nM human HER2, 24 h incubation, read-out: huHER2 TR-FRET IC50

Compound	IC50 ([1]; read-out: huHER2 TR-FRET IC50)	Kd [2]	Kd [3]	IC50 [4, 5]	IC50 [4, 6]	IC50 [1, 7]	IC50 ([1]; value in parentheses (**): recalculated after further repetition, read-out: huHER2 TR-FRET IC50, recalculated value achieved after further repetition)
CC(=O)NCCCC[C@H]1C(=O)N[C@@H](Cc2c[nH]c3ccc(O)cc23)C(=O)N[C@@H](Cc2c[nH]c3ccccc23)C(=O)N[C@@H](C2CC2)C(=O)N(C)[C@H](C(=O)N(C)[C@@H](Cc2ccc(F)cc2)C(=O)N[C@@H](CCCCN=[N+]=[N-])C(N)=O)CNC(=O)CCC[C@H](NC(C)=O)C(=O)N[C@@H](Cc2ccc(O)cc2)C(=O)N[C@@H](CO)C(=O)N(C)[C@@H](CCc2ccccc2)C(=O)N1C [Example A74] (Ac-[Aad]YS[NMehPhe][NMeK](Ac)[Trp(5-OH)]W[Gly(cPr)][NMeDap][NMePhe(4-F)][Lys(N3)]-NH2; lactam 1-9)	0.1 nM	0.1 nM	0.1 nM	0.5 nM	0.3 nM		
CC(=O)NCCCC[C@H]1C(=O)N[C@@H](Cc2c[nH]c3ccc(O)cc23)C(=O)N[C@@H](C)C(=O)N[C@@H](C2CC2)C(=O)N(C)[C@H](C(=O)N(C)[C@@H](Cc2ccc(F)cc2)C(=O)N[C@@H](CCCCNC(=O)CN2CCN(CC(=O)O)CCN(CC(=O)O)CCN(CC(=O)O)CC2)C(N)=O)CNC(=O)CCC[C@H](NC(C)=O)C(=O)N[C@@H](Cc2ccc(O)cc2)C(=O)N[C@@H](CO)C(=O)N(C)[C@@H](CCc2ccccc2)C(=O)N1C [Example B3] (Ac-[Aad]YS[NMehPhe][NMeK](Ac)[Trp(5-OH)]A[Gly(cPr)][NMeDap][NMePhe(4-F)]K(DOTA)-NH2; lactam 1-9)	> 1000 nM	> 6000 nM	> 6000 nM	> 1000 nM			
CC(=O)N[C@H]1CCCC(=O)NC[C@@H](C(=O)N(C)[C@@H](Cc2ccc(F)cc2)C(=O)N[C@@H](CCCCNC(=O)CN2CCN(CC(=O)O)CCN(CC(=O)O)CCN(CC(=O)O)CC2)C(N)=O)N(C)C(=O)[C@H](C2CC2)NC(=O)[C@H](Cc2c[nH]c3ccccc23)NC(=O)[C@H](Cc2c[nH]c3ccc(O)cc23)NC(=O)[C@H](CCCCNC(=O)CO)N(C)C(=O)[C@H](CCc2ccccc2)N(C)C(=O)[C@H](CO)NC(=O)[C@H](Cc2ccc(O)cc2)NC1=O [Example B5]	< 0.1 nM	0.1 nM	< 0.1 nM	0.2 nM			
CC(=O)N[C@H]1CCCC(=O)NC[C@@H](C(=O)N(C)[C@@H](Cc2ccc(F)cc2)C(=O)N[C@@H](CCCCNC(=O)CN2CCN(CC(=O)O)CCN(CC(=O)O)CCN(CC(=O)O)CC2)C(N)=O)N(C)C(=O)[C@H]([C@H](C)O)NC(=O)[C@H](Cc2c[nH]c3ccccc23)NC(=O)[C@H](Cc2c[nH]c3ccc(O)cc23)NC(=O)[C@H](CCCCNC(=O)CO)N(C)C(=O)[C@H](CCc2ccccc2)N(C)C(=O)[C@H](CO)NC(=O)[C@H](Cc2ccc(O)cc2)NC1=O [Example B6]	0.3 nM	1.2 nM	0.5 nM	1.1 nM			
CC(=O)N[C@H]1CCCC(=O)NC[C@@H](C(=O)N(C)[C@@H](Cc2ccc(F)cc2)C(=O)N[C@@H](CCCCNC(=O)CN2CCN(CC(=O)O)CCN(CC(=O)O)CCN(CC(=O)O)CC2)C(N)=O)N(C)C(=O)[C@H]([C@H](C)O)NC(=O)[C@H](Cc2c[nH]c3ccccc23)NC(=O)[C@H](Cc2c[nH]c3ccc(O)cc23)NC(=O)[C@H](CCCCNC(=O)CCO)N(C)C(=O)[C@H](CCc2ccccc2)N(C)C(=O)[C@H](CO)NC(=O)[C@H](Cc2ccc(O)cc2)NC1=O [Example B7]	0.4 nM	0.8 nM	0.4 nM	1.3 nM			
CC(=O)NCCCC[C@H]1C(=O)N[C@@H](Cc2c[nH]c3ccc(O)cc23)C(=O)N[C@H](Cc2c[nH]c3ccccc23)C(=O)N[C@@H](C2CC2)C(=O)N(C)[C@H](C(=O)N(C)[C@@H](Cc2ccc(F)cc2)C(=O)N[C@@H](CCCCNC(=O)CN2CCN(CC(=O)O)CCN(CC(=O)O)CCN(CC(=O)O)CC2)C(N)=O)CNC(=O)CCC[C@H](NC(C)=O)C(=O)N[C@@H](Cc2ccc(O)cc2)C(=O)N[C@@H](CO)C(=O)N(C)[C@@H](CCc2ccccc2)C(=O)N1C [Example B9]	> 1000 nM	> 6000 nM	5110 nM	> 1000 nM			
CC(=O)NCCCC[C@H]1C(=O)N[C@@H](Cc2c[nH]c3ccc(O)cc23)C(=O)N[C@@H](Cc2c[nH]c3ccccc23)C(=O)N[C@@H](C2CC2)C(=O)N(C)[C@H](C(=O)N(C)[C@@H](Cc2ccc(F)cc2)C(=O)N[C@@H](CCCCNC(=O)CCC(C(=O)O)N2CCN(CC(=O)O)CCN(CC(=O)O)CC2)C(N)=O)CNC(=O)CCC[C@H](NC(C)=O)C(=O)N[C@@H](Cc2ccc(O)cc2)C(=O)N[C@@H](CO)C(=O)N(C)[C@@H](CCc2ccccc2)C(=O)N1C (stereo partly shown) [Example B13]	< 0.1 nM	< 0.1 nM	< 0.1 nM	< 0.1 nM			
CC(=O)NCCCC[C@H]1C(=O)N[C@@H](Cc2c[nH]c3ccc(O)cc23)C(=O)N[C@@H](Cc2c[nH]c3ccccc23)C(=O)N[C@@H](C2CC2)C(=O)N(C)[C@H](C(=O)N(C)[C@@H](Cc2ccc(F)cc2)C(=O)N[C@@H](CCCCNC(=O)CN2CCN(CC(=O)O)CCN(CC(=O)O)CCN(CC(=O)O)CC2)C(N)=O)CNC(=O)CCC[C@H](NC(C)=O)C(=O)N[C@@H](Cc2ccc(O)cc2)C(=O)N[C@@H](CCCCNC(=O)N2CCN(CC(=O)O)CC2)C(=O)N(C)[C@@H](CCc2ccccc2)C(=O)N1C [Example C7] (Ac-[Aad]YK([CO-Piperazinyl(4-CH2COOH)])[NMehPhe][NMeK](Ac)[Trp(5-OH)]W[Gly(cPr)][NMeDap][NMePhe(4-F)]K(DOTA)-NH2; lactam 1-9)		799 nM	1150 nM	422 nM	434 nM	236 nM	164 nM
CC(=O)NCCCC[C@H]1C(=O)N[C@@H](Cc2c[nH]c3ccc(O)cc23)C(=O)N[C@@H](Cc2c[nH]c3ccccc23)C(=O)N[C@@H](C2CC2)C(=O)N(C)[C@H](C(=O)N(C)[C@@H](Cc2ccc(F)cc2)C(=O)N[C@@H](CCCCNC(=O)CN2CCN(CC(=O)O)CCN(CC(=O)O)CCN(CC(=O)O)CC2)C(N)=O)CNC(=O)CCC[C@H](NC(=O)CCC(=O)O)C(=O)N[C@@H](Cc2ccc(O)cc2)C(=O)N[C@@H](CO)C(=O)N(C)[C@@H](CCc2ccccc2)C(=O)N1C [Example C11]		< 0.1 nM	< 0.1 nM	0.1 nM		< 0.1 nM	
CC(=O)NCCCC[C@H]1C(=O)N[C@@H](Cc2c[nH]c3ccc(O)cc23)C(=O)N[C@@H](Cc2c[nH]c3ccccc23)C(=O)N[C@@H](C2CC2)C(=O)N(C)[C@H](C(=O)N(C)[C@@H](Cc2ccc(F)cc2)C(=O)N[C@@H](CCCCNC(=O)CN2CCN(CC(=O)O)CCN(CC(=O)O)CCN(CC(=O)O)CC2)C(N)=O)CNC(=O)CCCCC(=O)N[C@@H](Cc2ccc(O)cc2)C(=O)N[C@@H](CO)C(=O)N(C)[C@@H](CCc2ccccc2)C(=O)N1C [Example C14] (YS[NMehPhe][NMeK](Ac)[Trp(5-OH)]W[Gly(cPr)][NMeDap][NMePhe(4-F)]K(DOTA)-NH2; linker N-8 via Adipoyl)		0.2 nM	< 0.1 nM	0.3 nM		< 0.1 nM	
CC(=O)NCCCC[C@H]1C(=O)N[C@@H](Cc2c[nH]c3ccc(O)cc23)C(=O)N[C@@H](Cc2c[nH]c3ccccc23)C(=O)N[C@@H](C2CC2)C(=O)N(C)[C@H](C(=O)N(C)[C@@H](Cc2ccc(F)cc2)C(=O)N[C@@H](CCCCNC(=O)CN2CCN(CC(=O)O)CCN(CC(=O)O)CCN(CC(=O)O)CC2)C(N)=O)CNC(=O)CCC[C@H](NC(=O)CO)C(=O)N[C@@H](Cc2ccc(O)cc2)C(=O)N[C@@H](CO)C(=O)N(C)[C@@H](CCc2ccccc2)C(=O)N1C [Example C15]		< 0.1 nM	< 0.1 nM	0.2 nM		< 0.1 nM	
CC(=O)NCCCC[C@H]1C(=O)N[C@@H](Cc2c[nH]c3ccc(O)cc23)C(=O)N[C@@H](Cc2c[nH]c3ccccc23)C(=O)N[C@@H]([C@H](C)O)C(=O)N(C)[C@H](C(=O)N(C)[C@@H](Cc2ccc(F)cc2)C(=O)N[C@@H](CCCCNC(=O)N2CCN(CC(=O)O)CC2)C(=O)N[C@H](CCCCNC(=O)CN2CCN(CC(=O)O)CCN(CC(=O)O)CCN(CC(=O)O)CC2)C(N)=O)CNC(=O)CC[C@H](NC(C)=O)C(=O)N[C@@H](Cc2ccc(O)cc2)C(=O)N[C@@H](CO)C(=O)N(C)[C@@H](CCc2ccccc2)C(=O)N1C [Example C23]		39 nM	47 nM	76 nM	49 nM	62 nM	
